Measured values published in US8455460B2, “Cosmetic composition containing one or more compounds of the β-(1,3)-glucuronan or β-(1,3)-glucoglucuronan type” (Greentech, priority 2007, dated 2013).

Key:
[1] = clinical study on human volunteers, daily topical application of cream (cellulite, orange-peel skin); format: in vivo; conditions: cream containing 3%, daily topical application for 30 days, placebo 27%
Excerpt: The orange-peel skin effect is reduced in 53% of the volunteers (against 27% in the group of volunteers treated with a placebo).

[2] = chelation and sequestration of cationic ions, investigated by atomic absorption; format: physicochemical; conditions: Na+, Cu+, Cu2+, Ca2+, Mg2+, Zn2+, with stirring, compounds recovered and washed
Excerpt: The β-(1,3)-glucuronan compounds or the mixture of β-(1,3)-glucoglucuronan compounds are polyanionic molecules capable of chelating and of sequestering mono- and divalent cationic ions.

adipocytes = assay: in-vitro study on adipocytes: density of fatty acids stored as triglycerides in the lipid vacuoles; format: cell-based; conditions: concentration of 0.5%
human fibroblasts = assay: transcriptomic study on human fibroblasts cultivated in vitro in the absence or presence of the compounds; format: cell-based; conditions: cellular renewal
Excerpt: The biological activities of β-(1,3)-glucuronan compounds or of a mixture of β-(1,3)-glucoglucuronan compounds were screened by an original method of molecular biology (transcriptomic technique) and then detected by methodologies used conventionally in cosmetology.
This adipokine produced locally in the adipose tissue inhibits the activity of the enzyme lipoprotein lipase (LPL) thus preventing the transfer of fatty acids from the lipoproteins to the adipocytes, thus greatly reducing lipogenesis. At the same time, this adipokine activates the enzyme ATGL (adipose triglyceride lipase), present in the adipocytes, thus greatly increasing lipolysis and the release of fatty acids from the adipocytes.
In fact, the transitory induction (under the control of TFPI2 and of PDGFD) of the metalloproteinases (MMP) and the transitory inhibition (under the control of TFPI2) of HAPLN1, permit transitory, localized destabilization of the stressed site (requiring cicatrization) of the extracellular matrix, mainly by catabolic action on the collagen fibers. […]

chelating and sequestering of mono- and divalent cationic ions [2]: chelate and sequester
Substance: β-(1,3)-D-polyglucuronic acid [β-(1,3)-glucuronan compound]
volunteers in whom the orange-peel skin effect is reduced [1]: 53% | decrease in the density of fatty acids stored in the form of triglycerides in the lipid vacuoles of the adipocytes (adipocytes): ~25% | expression of TFPI2 (human fibroblasts): overexpressed | expression of the genes EGR1, PTGS2, PDGFD, NPTX1 (human fibroblasts): overexpression
